Test results as given in US20250326715A1, “NOVEL MAIN PROTEASE INHIBITORS, AND COMPOSITIONS AND METHODS THEREOF” (University of Massachusetts, priority 2023, published 2025).
Where a SMILES comes first, the peptide text is derived from it.

System: SARS-CoV-2
Test: microbe, parasite or virus in culture
Format: cell-based
Settings: A549-hACE2 cells

Row | SMILES | antiviral activity compared with SM141 and SM142
1 | C#CCOCCC(=O)NC(Cc1ccccc1)C(=O)NC(Cc1ccccc1)C(=O)NC(C=CC(=O)OCC)CC1CCNC1=O (centres unmarked) [SM145] | significantly lower antiviral activity than SM141 and SM142

Target: T1, SARS-CoV-2 M^Pro (Severe acute respiratory syndrome coronavirus 2, UniProt P0DTD1)
Test: Determination of kinact/KI values for SARS-CoV-2 M^Pro (time- and concentration-dependent inactivation)
Format: biochemical
Settings: read-out: M^Pro kinact/KI
Procedure: where νo is the initial velocity of uninhibited reaction and νi is the initial velocity in the presence of inhibitor. All measurements were done in triplicate. Determination of kinact/KI values for SARS-CoV-2 M^Pro
Time- and concentration-dependent inactivation assays were done by following a similar protocol as described for Ki determination. M^Pro (12.5 nM final) was treated with the peptide-substrate (30 μM final) and test inhibitor (0-80 μM for D-FF(R/Cit)-(CMK/CMKyne); 0-1.25 mM for SM136-145) at time=0 to initiate inactivation process. The total volume of the assay mixture was 50 μL. Time-dependent increase in fluorescence was monitored at 485 nm with excitation at 340 nm for a period of 20-25 min. The observed rates (kobs) for the peptide cleavage in both the presence and absence of inhibitor were determined by fitting to a single-phase association equation. The resulting kobs values were plotted against the concentrations of inhibitor and linear fits were used to derive the slope that afforded the kinact/KI values. All measurements were done in triplicate.

Row | SMILES | kinact/KI [M⁻¹ s⁻¹]
2 | CCOC(=O)C=CC(CC1CCNC1=O)NC(=O)C(Cc1ccc(F)cc1)NC(=O)C(Cc1ccccc1)NC(=O)OC(C)(C)C (centres unmarked) [SM136] | 12.8
3 | CCOC(=O)C=CC(CC1CCNC1=O)NC(=O)C(Cc1ccccc1)NC(=O)C(N)Cc1ccc(F)cc1 (centres unmarked) [SM143] | 350
4 | CCOC(=O)C=CC(CC1CCNC1=O)NC(=O)C(Cc1ccc(F)cc1)NC(=O)C(N)Cc1ccc(F)cc1 (centres unmarked) [SM139] | 25
5 | CCOC(=O)C=CC(CC1CCNC1=O)NC(=O)C(Cc1ccccc1)NC(=O)C(Cc1ccccc1)NC(=O)OC(C)(C)C (centres unmarked) [SM140] | 150
6 | CCOC(=O)C=CC(CC1CCNC1=O)NC(=O)C(Cc1ccc(F)cc1)NC(=O)C(Cc1ccc(F)cc1)NC(=O)OC(C)(C)C (centres unmarked) [SM138] | 10.8
7 | C#CCOCCC(=O)NC(Cc1ccccc1)C(=O)NC(Cc1ccccc1)C(=O)NC(C=CC(=O)OCC)CC1CCNC1=O (centres unmarked) [SM145] | 400
8 | CCOC(=O)C=CC(CC1CCNC1=O)NC(=O)C(Cc1ccc(F)cc1)NC(=O)C(N)Cc1ccccc1 (centres unmarked) [SM137] | 30

Same assay, conditions: read-out: second-order rate constant for enzyme inactivation (kinact/KI), M^Pro

Row | SMILES | kinact/KI [M⁻¹ s⁻¹]
9 | C#CCOCCC(=O)NC(Cc1ccccc1)C(=O)NC(Cc1ccccc1)C(=O)NC(C=CC(=O)OCC)CC1CCNC1=O (centres unmarked) [SM145] | 400

Target: T2, Cathepsin L (Homo sapiens, UniProt P07711)
T2 construct: purchased Abcam ab197012
Test: Cathepsin L inhibition assay kit (Abcam), IC50 and kinact/KI
Format: biochemical
Settings: 20 min pretreatment
Procedure: (§1) Determination of IC50 and kinact/KI values for Cathepsins L and B
IC50 and kinact/KI values of the inhibitors were determined using commercially available inhibition assay kits (Abcam) by following the manufacturer's protocol. […] The observed rates (kobs) were determined by fitting to a single-phase association equation. The resulting kobs values were plotted against the concentrations of inhibitor and the data were fit to equation 2 to derive the kinact/KI values,
using GraphPad Prism, where kinact is the maximal rate of inactivation, KI is the concentration of inhibitor that affords half-maximal inactivation, and [I] is the concentration of inhibitor. When kobs with [I] varied linearly, kinact/KI was determined from the slope of the line. All the experiments were performed in triplicate. […] Crystallization of M^Pro in Complex with Inhibitors

T2 sequence (P07711 114-333): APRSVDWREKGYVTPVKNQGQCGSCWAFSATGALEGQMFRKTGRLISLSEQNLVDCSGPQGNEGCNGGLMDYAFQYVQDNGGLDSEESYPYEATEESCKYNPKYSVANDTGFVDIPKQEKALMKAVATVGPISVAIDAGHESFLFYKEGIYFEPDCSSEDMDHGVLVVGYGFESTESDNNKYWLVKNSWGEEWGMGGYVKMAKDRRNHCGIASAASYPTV

Row | SMILES | IC50 [µM]
10 | CCOC(=O)C=CC(CC1CCNC1=O)NC(=O)C(Cc1ccccc1)NC(=O)C(N)Cc1ccc(F)cc1 (centres unmarked) [SM143] | 0.073
11 | C#CCOCCC(=O)NC(Cc1ccccc1)C(=O)NC(Cc1ccccc1)C(=O)NC(C=CC(=O)OCC)CC1CCNC1=O (centres unmarked) [SM145] | 0.2

Same assay, conditions: read-out: Cathepsin L kinact/KI

Row | SMILES | kinact/KI [M⁻¹ s⁻¹]
12 | CCOC(=O)C=CC(CC1CCNC1=O)NC(=O)C(Cc1ccccc1)NC(=O)C(N)Cc1ccc(F)cc1 (centres unmarked) [SM143] | 2330
13 | C#CCOCCC(=O)NC(Cc1ccccc1)C(=O)NC(Cc1ccccc1)C(=O)NC(C=CC(=O)OCC)CC1CCNC1=O (centres unmarked) [SM145] | 417

Target: T1, SARS-CoV-2 M^Pro
Test: Determination of IC50 values for SARS-CoV-2 M^Pro (fluorogenic peptide substrate, end-point)
Format: biochemical
Settings: 12.5 nM M^Pro, 20 min preincubation, 30 μM substrate; read-out: M^Pro IC50

Row | SMILES | IC50 [µM]
14 | CCOC(=O)C=CC(CC1CCNC1=O)NC(=O)C(Cc1ccc(F)cc1)NC(=O)C(Cc1ccccc1)NC(=O)OC(C)(C)C (centres unmarked) [SM136] | 20
15 | N=C(N)NCCC[C@H](NC(=O)[C@H](Cc1ccccc1)NC(=O)[C@H](N)Cc1ccccc1)C(=O)CCl [D-FFR-CMK] (HELM PEPTIDE1{[dF].F.R.[ClC[*:1]]}$$$$V2.0) | 0.1
16 | CCOC(=O)C=CC(CC1CCNC1=O)NC(=O)C(Cc1ccccc1)NC(=O)C(N)Cc1ccc(F)cc1 (centres unmarked) [SM143] | 0.9
17 | CCOC(=O)C=CC(CC1CCNC1=O)NC(=O)C(Cc1ccc(F)cc1)NC(=O)C(N)Cc1ccc(F)cc1 (centres unmarked) [SM139] | 10
18 | CCOC(=O)C=CC(CC1CCNC1=O)NC(=O)C(Cc1ccccc1)NC(=O)C(Cc1ccccc1)NC(=O)OC(C)(C)C (centres unmarked) [SM140] | 2.2
19 | NC(=O)NCCC[C@H](NC(=O)[C@H](Cc1ccccc1)NC(=O)[C@H](N)Cc1ccccc1)C(=O)CCl [D-FFCit-CMK] (HELM PEPTIDE1{[dF].F.[Cit].[ClC[*:1]]}$$$$V2.0) | 0.13
20 | C#CCOCCC(=O)NC(Cc1ccccc1)C(=O)NC(Cc1ccccc1)C(=O)NC(C=CC(=O)OCC)CC1CCNC1=O (centres unmarked) [SM145] | 0.8
21 | CCOC(=O)C=CC(CC1CCNC1=O)NC(=O)C(Cc1ccc(F)cc1)NC(=O)C(N)Cc1ccccc1 (centres unmarked) [SM137] | 10

Target: T3, Cathepsin B (Homo sapiens, UniProt P07858)
T3 construct: purchased Abcam ab185438
Test: Cathepsin B inhibition assay kit (Abcam), IC50
Format: biochemical
Settings: 20 min pretreatment
Procedure: as §1
IC50 and kinact/KI values of the inhibitors were determined using commercially available inhibition assay kits (Abcam) by following the manufacturer's protocol. For IC50 values, enzymes were pretreated with test inhibitor (0-50 μM) for 20 min prior to adding the fluorogenic substrate, and end-point fluorescence was recorded after 30 min. For the kinact/KI values, enzymes were treated with inhibitor and substrate simultaneously and increase in fluorescence was monitored over 60 min. The observed rates (kobs) were determined by fitting to a single-phase association equation. The resulting kobs values were plotted against the concentrations of inhibitor and the data were fit to equation 2 to derive the kinact/KI values,
using GraphPad Prism, where kinact is the maximal rate of inactivation, KI is the concentration of inhibitor that affords half-maximal inactivation, and [I] is the concentration of inhibitor. When kobs with [I] varied linearly, kinact/KI was determined from the slope of the line. All the experiments were performed in triplicate. All fluorescence measurements were taken at absorption/emission wavelength of 400/505 nm using an EnVision 2105 plate reader. Crystallization of M^Pro in Complex with Inhibitors

Row | SMILES | IC50 [µM]
22 | CCOC(=O)C=CC(CC1CCNC1=O)NC(=O)C(Cc1ccccc1)NC(=O)C(N)Cc1ccc(F)cc1 (centres unmarked) [SM143] | > 50
23 | CCOC(=O)C=CC(CC1CCNC1=O)NC(=O)C(Cc1ccccc1)NC(=O)C(Cc1ccccc1)NC(=O)OC(C)(C)C (centres unmarked) [SM140] | > 50
24 | C#CCOCCC(=O)NC(Cc1ccccc1)C(=O)NC(Cc1ccccc1)C(=O)NC(C=CC(=O)OCC)CC1CCNC1=O (centres unmarked) [SM145] | > 50

System: CYP3A4/5
Test: not given
Settings: data from medRxiv preprint; cited from earlier work

Row | SMILES | CYP3A4/5 metabolism
25 | CC(C)(C)[C@H](NC(=O)C(F)(F)F)C(=O)N1C[C@H]2[C@@H]([C@H]1C(=O)N[C@H](C#N)C[C@@H]1CCNC1=O)C2(C)C [nirmatrelvir] | HIGH

Target: SARS-CoV-2 PL^Pro (Severe acute respiratory syndrome coronavirus 2, UniProt P0DTD1)
Test: Determination of IC50 values for SARS-CoV-2 PL^Pro (Z-RLRGG-AMC substrate)
Format: biochemical
Settings: 30 nM PL^Pro, 20 min preincubation; read-out: PL^Pro IC50

Row | SMILES | IC50 [µM]
26 | N=C(N)NCCC[C@H](NC(=O)[C@H](Cc1ccccc1)NC(=O)[C@H](N)Cc1ccccc1)C(=O)CCl [D-FFR-CMK] (HELM PEPTIDE1{[dF].F.R.[ClC[*:1]]}$$$$V2.0) | 5
27 | CCOC(=O)C=CC(CC1CCNC1=O)NC(=O)C(Cc1ccccc1)NC(=O)C(N)Cc1ccc(F)cc1 (centres unmarked) [SM143] | > 50
28 | CCOC(=O)C=CC(CC1CCNC1=O)NC(=O)C(Cc1ccccc1)NC(=O)C(Cc1ccccc1)NC(=O)OC(C)(C)C (centres unmarked) [SM140] | > 50
29 | NC(=O)NCCC[C@H](NC(=O)[C@H](Cc1ccccc1)NC(=O)[C@H](N)Cc1ccccc1)C(=O)CCl [D-FFCit-CMK] (HELM PEPTIDE1{[dF].F.[Cit].[ClC[*:1]]}$$$$V2.0) | > 50
30 | C#CCOCCC(=O)NC(Cc1ccccc1)C(=O)NC(Cc1ccccc1)C(=O)NC(C=CC(=O)OCC)CC1CCNC1=O (centres unmarked) [SM145] | > 50

System: A549-hACE2 cells
Test: not given
Settings: Table 2; data from medRxiv preprint; cited from earlier work

Row | SMILES | cytoxcity [µM]
31 | CC(C)(C)[C@H](NC(=O)C(F)(F)F)C(=O)N1C[C@H]2[C@@H]([C@H]1C(=O)N[C@H](C#N)C[C@@H]1CCNC1=O)C2(C)C [nirmatrelvir] | >3

Target: T1, SARS-CoV-2 M^Pro
Test: Determination of KI values for SARS-CoV-2 M^Pro (initial velocity, competitive inhibition)
Format: biochemical
Settings: competitive inhibition, initial velocity; read-out: M^Pro Ki

Row | SMILES | Ki [µM]
32 | CCOC(=O)C=CC(CC1CCNC1=O)NC(=O)C(Cc1ccc(F)cc1)NC(=O)C(Cc1ccccc1)NC(=O)OC(C)(C)C (centres unmarked) [SM136] | 73
33 | CCOC(=O)C=CC(CC1CCNC1=O)NC(=O)C(Cc1ccccc1)NC(=O)C(N)Cc1ccc(F)cc1 (centres unmarked) [SM143] | 7
34 | CCOC(=O)C=CC(CC1CCNC1=O)NC(=O)C(Cc1ccc(F)cc1)NC(=O)C(N)Cc1ccc(F)cc1 (centres unmarked) [SM139] | 65
35 | CCOC(=O)C=CC(CC1CCNC1=O)NC(=O)C(Cc1ccccc1)NC(=O)C(Cc1ccccc1)NC(=O)OC(C)(C)C (centres unmarked) [SM140] | 16
36 | C#CCOCCC(=O)NC(Cc1ccccc1)C(=O)NC(Cc1ccccc1)C(=O)NC(C=CC(=O)OCC)CC1CCNC1=O (centres unmarked) [SM145] | 5.3
37 | CCOC(=O)C=CC(CC1CCNC1=O)NC(=O)C(Cc1ccc(F)cc1)NC(=O)C(N)Cc1ccccc1 (centres unmarked) [SM137] | 50

System: not given
Test: not given
Settings: data from medRxiv preprint; cited from earlier work

Row | SMILES | Fa × Fg [%]
38 | CC(C)(C)[C@H](NC(=O)C(F)(F)F)C(=O)N1C[C@H]2[C@@H]([C@H]1C(=O)N[C@H](C#N)C[C@@H]1CCNC1=O)C2(C)C [nirmatrelvir] | 95
